From patent US20260174763A1, “PREPARATION METHOD AND USE OF A NOVEL TAXANE-BASED COMPOUND” (Jiangsu Jibeier Pharmaceutical Co., Ltd., priority 2023, published 2026)

Legend:
[1] = tested on: human gastric cancer cell line MGC-803; assay: CTG proliferation inhibition, MGC-803; format: cell-based; settings: 72 h incubation, read-out: IC50 (nM) of the test compounds for various tumor cell lines
Description: (§1) Testing the inhibition effect of the compounds of Formula (I) and Formula II on the proliferation of various tumor cell lines by CTG method:
(§2) The CellTiter-Glo Luminescent Cell Viability Assay (CTG) method was used to test the inhibition effect of the compounds of Formula (I) and Formula II on the proliferation of various tumor cell lines, and IC50 value was calculated. The tumor cell lines included: human pancreatic cancer cell lines: SW1990, PANC-1, HPAF-II; human gastric cancer cell lines: NCI-N87, MGC-803; human esophageal cancer cell lines: KYSE-150, KYSE-410; human head-and-neck cancer cell lines: C666-1, Fadu; human breast cancer cell line: MDA-MB-231; human lung cancer cell line: A549; human adrenocortical carcinoma cell line: SW-13; human bladder cancer/urothelial carcinoma cell line: BIU-87, totally 13 tumor cell lines.
(§3) Experimental method: cells in logarithmic growth phase were obtained. The cell suspension was added to each well of a 96-well plate, placed in an incubator at 37° C. for overnight incubation. Complete mediums corresponding to each of the tumor cell lines were used to dilute the test compounds of […] and Formula II. The drugs were subjected to gradient dilution according to the following table. Culture medium containing the drug to be tested was added to the 96-well plate. Replicates were provided or each concentration in three wells; and a negative control well not containing the drug to be tested was provided. The 96-well plate was placed in incubator for incubation for 72 h and then added thereto a CTG reagent, with a blank control well provided. The substances in the wells were mixed evenly, and the cells were lysed and incubated at room temperature for 10 min. The […] signal value (Lum) was measured with a microplate reader.
(§4) Data processing and analysis: The software GraphPad Prism 8.0 was used to process the data graphically, calculate IC50, perform four-parameter non-linear regression analysis on the data, and map the corresponding dose-response curve. The equation for calculating cell viability is as below: […]

[2] = tested on: human esophageal cancer cell line KYSE-150; assay: CTG proliferation inhibition, KYSE-150; format: cell-based; settings: 72 h incubation, read-out: IC50 (nM) of the test compounds for various tumor cell lines
Description: as §1, §2, §3, §4

[3] = tested on: human esophageal cancer cell line KYSE-410; assay: CTG proliferation inhibition, KYSE-410; format: cell-based; settings: 72 h incubation, read-out: IC50 (nM) of the test compounds for various tumor cell lines
Description: as §1, §2, §3, §4

[4] = tested on: human breast cancer cell line MDA-MB-231; assay: CTG proliferation inhibition, MDA-MB-231; format: cell-based; settings: 72 h incubation, read-out: IC50 (nM) of the test compounds for various tumor cell lines
Description: as §1, §2, §3, §4

[5] = tested on: human lung cancer cell line A549; assay: CTG proliferation inhibition, A549; format: cell-based; settings: 72 h incubation, read-out: IC50 (nM) of the test compounds for various tumor cell lines
Description: as §1, §2, §3, §4

[6] = tested on: human adrenocortical carcinoma cell line SW-13; assay: CTG proliferation inhibition, SW-13; format: cell-based; settings: 72 h incubation, read-out: IC50 (nM) of the test compounds for various tumor cell lines
Description: as §1, §2, §3, §4

[7] = tested on: human head-and-neck cancer cell line Fadu; assay: CTG proliferation inhibition, Fadu; format: cell-based; settings: 72 h incubation, read-out: IC50 (nM) of the test compounds for various tumor cell lines
Description: as §1, §2, §3, §4

[8] = tested on: human pancreatic cancer cell line PANC-1; assay: CTG proliferation inhibition, PANC-1; format: cell-based; settings: 72 h incubation, read-out: IC50 (nM) of the test compounds for various tumor cell lines
Description: as §1, §2, §3, §4

[9] = tested on: human gastric cancer cell line NCI-N87; assay: CTG proliferation inhibition, NCI-N87; format: cell-based; settings: 72 h incubation, read-out: IC50 (nM) of the test compounds for various tumor cell lines
Description: as §1, §2, §3, §4

[10] = tested on: human pancreatic cancer cell line HPAF-II; assay: CTG proliferation inhibition, HPAF-II; format: cell-based; settings: 72 h incubation, read-out: IC50 (nM) of the test compounds for various tumor cell lines
Description: as §1, §2, §3, §4

[11] = tested on: human bladder cancer/urothelial carcinoma cell line BIU-87; assay: CTG proliferation inhibition, BIU-87; format: cell-based; settings: 72 h incubation, read-out: IC50 (nM) of the test compounds for various tumor cell lines
Description: as §1, §2, §3, §4

[12] = tested on: human head-and-neck cancer cell line C666-1; assay: CTG proliferation inhibition, C666-1; format: cell-based; settings: 72 h incubation, read-out: IC50 (nM) of the test compounds for various tumor cell lines
Description: as §1, §2, §3, §4

[13] = tested on: human pancreatic cancer cell line SW1990; assay: CTG proliferation inhibition, SW1990; format: cell-based; settings: 72 h incubation, read-out: IC50 (nM) of the test compounds for various tumor cell lines
Description: as §1, §2, §3, §4

[14] = tested on: advanced breast cancer; settings: clinical outcome; cited from earlier work
[15] = tested on: advanced ovarian cancer; settings: clinical outcome; cited from earlier work
[16] = tested on: tumor cell; settings: compared with paclitaxel; cited from earlier work
[17] = tested on: advanced non-small cell lung cancer; settings: clinical outcome; cited from earlier work

SMILES	IC50 [1] [nM]	IC50 [2] [nM]	IC50 [3] [nM]	IC50 [4] [nM]	IC50 [5] [nM]	IC50 [6] [nM]	IC50 [7] [nM]	IC50 [8] [nM]	IC50 [9] [nM]	IC50 [10] [nM]	IC50 [11] [nM]	IC50 [12] [nM]	IC50 [13] [nM]	effective rate [14] [%]	effective rate [15] [%]	ability to inhibit cell division relative to paclitaxel [16]	tumor cell proliferation inhibition rate relative to paclitaxel [16] [times]	effective rate [17] [%]
CC(=O)OC12COC1CC(O)C1(C)C(=O)C(OC(=O)Nc3ccc(C(C)O)cc3)C3=C(C)C(OC(=O)C(O)C(NC(=O)OC(C)(C)C)c4ccccc4)CC(O)(C(OC(=O)c4ccccc4)C21)C3(C)C (centres unmarked) [Compound I-3]	2.08	0.376	0.084	6.61	25.3	2.69	0.657	0.814	8.3	2.22	0.319	10.5	0.916					
CC(=O)O[C@@]12CO[C@@H]1C[C@H](O)[C@@]1(C)C(=O)[C@H](O)C3=C(C)[C@@H](OC(=O)[C@H](O)[C@@H](NC(=O)OC(C)(C)C)c4ccccc4)C[C@@](O)([C@@H](OC(=O)c4ccccc4)[C@H]21)C3(C)C [docetaxel, Docetaxel]														60	30	twice that of paclitaxel	10	31
CC(=O)OC12COC1CC(O)C1(C)C(=O)C(OC(=O)Nc3ccc(C(C)O)cc3)C3=C(C)C(OC(=O)C(O)C(NC(=O)OC(C)(C)C)c4ccccc4)CC(O)(C(OC(=O)c4ccccc4)C21)C3(C)C (centres unmarked) [Compound I-5]	0.635	0.808	0.016	2.91	5.64	4.75	4.76	1.41	11.4	10.7	17.7	3.39	12.7					
CC(=O)OC12COC1CC(O)C1(C)C(=O)C(OC(=O)Nc3ccc(C(C)=O)cc3)C3=C(C)C(OC(=O)C(O)C(NC(=O)OC(C)(C)C)c4ccccc4)CC(O)(C(OC(=O)c4ccccc4)C21)C3(C)C (centres unmarked) [II, reference compound]	5.34	1.9	0.113	20.9	60.5	12.5	16.7	3.35	20.8	12.6	30.5	12.8	15.5					
CC(=O)OC12COC1CC(O)C1(C)C(=O)C(OC(=O)Nc3ccc(C(C)O)cc3)C3=C(C)C(OC(=O)C(O)C(NC(=O)OC(C)(C)C)c4ccccc4)CC(O)(C(OC(=O)c4ccccc4)C21)C3(C)C (centres unmarked) [Compound I-4]	4.99	0.726	0.097	12.6	12.4	9.12	8.62	0.549	18.8	2.18	17.5	12.1	6.4					
CC(=O)OC12COC1CC(O)C1(C)C(=O)C(OC(=O)Nc3ccc(C(C)O)cc3)C3=C(C)C(OC(=O)C(O)C(NC(=O)OC(C)(C)C)c4ccccc4)CC(O)(C(OC(=O)c4ccccc4)C21)C3(C)C (centres unmarked) [Compound I-6]	3.49	0.123	0.02	11.7	18.9	8.48	12.8	0.878	12.9	11	30.1	3.03	12.2					
CC(=O)OC12COC1CC(O)C1(C)C(=O)C(OC(=O)Nc3ccc(C(C)O)cc3)C3=C(C)C(OC(=O)C(O)C(NC(=O)OC(C)(C)C)c4ccccc4)CC(O)(C(OC(=O)c4ccccc4)C21)C3(C)C (centres unmarked) [Compound I-7]	4.93	0.972	0.1	13	60.2	7.36	6.47	0.888	10.9	3.11	10.2	9.19	6.73					
CC(=O)OC12COC1CC(O)C1(C)C(=O)C(OC(=O)Nc3ccc(C(C)O)cc3)C3=C(C)C(OC(=O)C(O)C(NC(=O)OC(C)(C)C)c4ccccc4)CC(O)(C(OC(=O)c4ccccc4)C21)C3(C)C (centres unmarked) [Compound I-1]	0.187	1.99	1.26	5.46	41.9	1.57	2.64	2.27	28.2	4.45	12.1	16	6.34					
CC(=O)OC12COC1CC(O)C1(C)C(=O)C(OC(=O)Nc3ccc(C(C)O)cc3)C3=C(C)C(OC(=O)C(O)C(NC(=O)OC(C)(C)C)c4ccccc4)CC(O)(C(OC(=O)c4ccccc4)C21)C3(C)C (centres unmarked) [Compound I-8]	0.844	1.7	0.032	6.57	27.1	10.1	9.16	0.007	14.7	9.05	12.7	10.5	14.2					
CC(=O)OC12COC1CC(O)C1(C)C(=O)C(OC(=O)Nc3ccc(C(C)O)cc3)C3=C(C)C(OC(=O)C(O)C(NC(=O)OC(C)(C)C)c4ccccc4)CC(O)(C(OC(=O)c4ccccc4)C21)C3(C)C (centres unmarked) [Compound I-2]	3.4	1.75	0.101	0.042	11.7	6.12	4.15	2.89	7.46	8.65	29.1	7.34	3.1					
